Experimental data published in patent US20230357249A1, “ANDROGEN RECEPTOR PROTEIN DEGRADERS WITH A TRICYCLIC CEREBLON LIGAND” (THE REGENTS OF THE UNIVERSITY OF MICHIGAN, priority 2020, published 2023).

Columns and labels:
[1] = system: AR protein; test: AR protein degradation in MDA-MB-453 cells, Western blotting; type: cell-based; parameters: key to AR protein degradation MDA-MB-453 10 nM: A: >90% degradation (24 hr treatment); B: >50% degradation but <90% (24 hr treatment); C: >10% degradation but <50% (24 hr treatment); D: No significant degradation (24 hr treatment); conditions: 24 hr treatment
Protocol: (§1) The appropriate cell line, e.g., prostate cancer LNCaP, Vcap, or 22RV1 cell line, was treated with Compounds of the Disclosure as indicated. The treated cells were lysed with RIPA buffer. The AR level in the cell lysates was examined by western blotting and a specific AR antibody (ab194196, Abcam, Cambridge, MA 02139) with concentration of 1:20,000. GAPDH was used as a loading control.
(§2) Bands were quantified with ImageJ software. The relative numbers of each band obtained from normalization with its corresponding GAPDH level were compared with Prism 8 software. The DC50 values were produced from Prism 8, and the DC90 values were calculated with an equation=Bottom + (Top-Bottom)/(1+10^((LogEC50-X)*HillSlope) based on DC50 and Hillslope values.
(§3) The amount of AR protein degradation in VCap and MDA-MB-453 cells caused by representative Compounds of the Disclosure at the concentrations indicated is presented in Table 4, FIG. 1, and FIG. 2.

[2] = target: T1, AR protein (Homo sapiens, UniProt P10275); test: AR protein degradation in VCaP cells, Western blotting; type: cell-based; parameters: key to AR protein degradation VCap 10 nM / AR protein degradation VCap 100 nM: A: >90% degradation (24 hr treatment); B: >50% degradation but <90% (24 hr treatment); C: >10% degradation but <50% (24 hr treatment); D: No significant degradation (24 hr treatment); conditions: 24 hr treatment; for percent AR protein degradation at 0.01 µM / AR protein degradation VCap 10 nM: 10 nM; for percent AR protein degradation at 0.1 µM / AR protein degradation VCap 100 nM: 100 nM
T1 construct: endogenous in cells; host or cells: VCaP
T1 sequence (P10275 1-920): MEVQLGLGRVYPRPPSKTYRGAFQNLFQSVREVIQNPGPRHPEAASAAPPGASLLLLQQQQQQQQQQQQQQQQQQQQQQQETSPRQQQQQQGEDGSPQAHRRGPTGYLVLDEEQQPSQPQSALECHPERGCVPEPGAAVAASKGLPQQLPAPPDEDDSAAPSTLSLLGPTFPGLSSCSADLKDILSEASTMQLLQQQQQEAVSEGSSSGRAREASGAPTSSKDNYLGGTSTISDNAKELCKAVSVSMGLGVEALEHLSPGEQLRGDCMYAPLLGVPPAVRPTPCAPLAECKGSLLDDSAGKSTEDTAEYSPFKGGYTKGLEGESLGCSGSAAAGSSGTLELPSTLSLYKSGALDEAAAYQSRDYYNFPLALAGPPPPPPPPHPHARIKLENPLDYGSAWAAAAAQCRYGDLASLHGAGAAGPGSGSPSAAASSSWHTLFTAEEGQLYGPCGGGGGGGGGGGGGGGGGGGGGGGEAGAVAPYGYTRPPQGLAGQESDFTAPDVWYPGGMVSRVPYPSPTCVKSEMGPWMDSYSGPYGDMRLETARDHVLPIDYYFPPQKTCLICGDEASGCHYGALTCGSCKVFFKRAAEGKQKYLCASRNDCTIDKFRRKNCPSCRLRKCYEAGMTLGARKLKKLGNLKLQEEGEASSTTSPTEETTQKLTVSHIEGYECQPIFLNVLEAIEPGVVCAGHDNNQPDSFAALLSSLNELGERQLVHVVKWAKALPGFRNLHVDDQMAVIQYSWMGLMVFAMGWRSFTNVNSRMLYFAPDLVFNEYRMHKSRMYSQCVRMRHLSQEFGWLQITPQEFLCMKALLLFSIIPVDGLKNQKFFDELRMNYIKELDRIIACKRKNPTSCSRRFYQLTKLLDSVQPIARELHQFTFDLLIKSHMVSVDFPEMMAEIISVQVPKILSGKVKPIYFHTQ
Protocol: as §1, §2, §3

SMILES: N#Cc1ccc(O[C@H]2CC[C@H](N3Cc4cc(N5CCN(CC(=O)N6CCc7cc8c(cc7C6)C(=O)N(C6CCC(=O)NC6=O)C8=O)CC5)ccc4C3=O)CC2)cc1Cl (stereo partly shown) [compound 3]
- AR protein degradation MDA-MB-453 10 nM [1]: D
- AR protein degradation MDA-MB-453 100 nM [1]: C (>10% degradation but <50% (24 hr treatment))

SMILES: N#Cc1ccc(O[C@H]2CC[C@H](N3Cc4cc(N5CCN(CC(=O)N6Cc7cc8c(cc7C6)C(=O)N(C6CCC(=O)NC6=O)C8=O)CC5)ccc4C3=O)CC2)cc1Cl (stereo partly shown) [compound 4]
- AR protein degradation MDA-MB-453 10 nM [1]: B (>50% degradation but <90% (24 hr treatment))
- AR protein degradation MDA-MB-453 100 nM [1]: A (>90% degradation (24 hr treatment))

SMILES: CC1(C)[C@H](Oc2ccc(C#N)c(Cl)c2)C(C)(C)[C@H]1N1Cc2cc(N3CCN(CC(=O)N4CCc5cc6c(cc5C4)C(=O)N(C4CCC(=O)NC4=O)C6=O)CC3)ccc2C1=O (stereo partly shown) [compound 1]
- AR protein degradation MDA-MB-453 10 nM [1]: D
- AR protein degradation MDA-MB-453 100 nM [1]: C (>10% degradation but <50% (24 hr treatment))

SMILES: CN(c1ccc(C#N)c(Cl)c1)[C@H]1CC[C@H](NC(=O)c2ccc([C@H]3CC[C@H](CN4Cc5cc6c(cc5C4)C(=O)N(C4CCC(=O)CC4=O)C6=O)CC3)cc2)CC1 (stereo partly shown) [compound 280]
- percent AR protein degradation at 0.01 µM [2]: > 90%
- percent AR protein degradation at 0.1 µM [2]: > 90%

SMILES: CC1(C)C(Nc2ccc(C(=O)N3CCC(CN4Cc5cc6c(cc5C4)C(=O)N(C4CCC(=O)NC4=O)C6=O)CC3)cc2)C(C)(C)C1Oc1ccc(C#N)c(Cl)c1 (stereo not shown) [compound 175]
- percent AR protein degradation at 0.01 µM [2]: 10 to 50%
- percent AR protein degradation at 0.1 µM [2]: 50 to 90%

SMILES: CC1(C)[C@H](Oc2ccc(C#N)c(Cl)c2)C(C)(C)[C@H]1N1Cc2cc(C(=O)N3CCC(CCN4Cc5cc6c(cc5C4)C(=O)N(C4CCC(=O)NC4=O)C6=O)CC3)ccc2C1=O (stereo partly shown) [compound 7]
- percent AR protein degradation at 0.01 µM [2]: 50 to 90%
- percent AR protein degradation at 0.1 µM [2]: > 90%

SMILES: CN(c1ccc(C#N)c(Cl)c1)[C@H]1CC[C@H](NC(=O)c2ccc(C3CCN(CC(=O)N4Cc5cc6c(cc5C4)C(=O)N(C4CCC(=O)NC4=O)C6)CC3)cc2)CC1 (stereo partly shown) [compound 328, N-((1r,4r)-4-((3-Chloro-4-Cyanophenyl)(Methyl)Amino)Cyclohexyl)-4-(1-(2-(6-(2,6-Dioxopiperidin-3-Yl)-5-Oxo-3,5,6,7-Tetrahydropyrrolo[3,4-F]Isoindol-2(1h)-Yl)-2-Oxoethyl)Piperidin-4-Yl)Benzamide]
- percent AR protein degradation at 0.01 µM [2]: > 90%
- percent AR protein degradation at 0.1 µM [2]: > 90%

SMILES: N#Cc1ccc(O[C@H]2CC[C@H](NC(=O)c3ccc4c(c3)CCN(CC(=O)N3CCc5cc6c(cc5C3)C(=O)N(C3CCC(=O)NC3=O)C6=O)C4)CC2)cc1Cl (stereo partly shown) [compound 28]
- percent AR protein degradation at 0.01 µM [2]: 50 to 90%
- percent AR protein degradation at 0.1 µM [2]: 50 to 90%

SMILES: CN(c1ccc(C#N)c(Cl)c1)[C@H]1CC[C@H](NC(=O)c2ccc(N3CCN(CC(=O)N4Cc5cc6c(cc5C4)C(=O)N(C4CCC(=O)NC4=O)C6)CC3)cc2)CC1 (stereo partly shown) [compound 327, N-((1r,4r)-4-((3-Chloro-4-Cyanophenyl)(Methyl)Amino)Cyclohexyl)-4-(4-(2-(6-(2,6-Dioxopiperidin-3-Yl)-5-Oxo-3,5,6,7-Tetrahydropyrrolo[3,4-F]Isoindol-2(1h)-Yl)-2-Oxoethyl)Piperazin-1-Yl)Benzamide]
- percent AR protein degradation at 0.01 µM [2]: > 90%
- percent AR protein degradation at 0.1 µM [2]: > 90%

SMILES: CN(c1ccc(C#N)c(Cl)c1)[C@H]1CC[C@H](NC(=O)c2ccc(N3CCC(CN4Cc5cc6c(cc5C4)C(=O)N(C4CCC(=O)NC4=O)C6=O)CC3)nc2)CC1 (stereo partly shown) [compound 323]
- percent AR protein degradation at 0.01 µM [2]: > 90%
- percent AR protein degradation at 0.1 µM [2]: > 90%

SMILES: C[C@H]1CCN(c2ccc(C(=O)N3CCC(N4Cc5cc6c(cc5C4)C(=O)N(C4CCC(=O)NC4=O)C6=O)CC3)cc2)CCN1c1ccc(C#N)c(Cl)c1 (stereo partly shown) [compound 119]
- percent AR protein degradation at 0.01 µM [2]: 50 to 90%
- percent AR protein degradation at 0.1 µM [2]: 50 to 90%

SMILES: N#Cc1ccc(O[C@H]2CC[C@H](Nc3ccc(C(=O)N4CCC(N5Cc6cc7c(cc6C5)C(=O)N(C5CCC(=O)NC5=O)C7=O)CC4)cc3)CC2)cc1Cl (stereo partly shown) [compound 10]
- AR protein degradation VCap 10 nM [2]: D
- percent AR protein degradation at 0.1 µM [2]: 50 to 90%

SMILES: N#Cc1ccc(O[C@H]2CC[C@H](Oc3ccc(C(=O)N4CCC(N5Cc6cc7c(cc6C5)C(=O)N(C5CCC(=O)NC5=O)C7=O)CC4)cc3)CC2)cc1Cl (stereo partly shown) [compound 11]
- AR protein degradation VCap 10 nM [2]: D
- AR protein degradation VCap 100 nM [2]: D

SMILES: C[C@@H]1CN(C(=O)c2ccc(N3CCC(CN4Cc5cc6c(cc5C4)C(=O)N(C4CCC(=O)NC4=O)C6=O)CC3)cc2)C[C@H]1Oc1ccc(C#N)c(Cl)c1 (stereo partly shown) [compound 122]
- AR protein degradation VCap 10 nM [2]: D
- AR protein degradation VCap 100 nM [2]: D

SMILES: N#Cc1ccc(O[C@H]2CC[C@H](NC(=O)c3ccc4c(c3)CCN(CC(=O)N3CCc5cc6c(cc5C3)C(=O)N(C3CCC(=O)NC3=O)C6=O)CC4)CC2)cc1Cl (stereo partly shown) [compound 29]
- percent AR protein degradation at 0.01 µM [2]: 50 to 90%
- percent AR protein degradation at 0.1 µM [2]: > 90%

SMILES: CN(c1ccc(C#N)c(Cl)c1)[C@H]1CC[C@H](NC(=O)c2ccc(N3CCC(CN4Cc5cc6c(cc5C4)C(=O)N(C4CCC(=O)NC4=O)C6=O)CC3)cc2)CC1 (stereo partly shown) [compound 20, N-((1r,4r)-4-((3-chloro-4-cyanophenyl)(methyl)amino)cyclohexyl)-4-(4-((6-(2,6-dioxopiperidin-3-yl)-5,7-dioxo-3,5,6,7-tetrahydropyrrolo [3,4-f]isoindol-2(1H)-yl)methyl)piperidin-1-yl)benzamide]
- percent AR protein degradation at 0.01 µM [2]: > 90%
- percent AR protein degradation at 0.1 µM [2]: > 90%

SMILES: N#Cc1ccc(N2CC[C@H]3C[C@H](NC(=O)c4ccc(N5CCC(CN6Cc7cc8c(cc7C6)C(=O)N(C6CCC(=O)NC6=O)C8=O)CC5)cc4)CC[C@H]32)cc1Cl (stereo partly shown) [compound 26]
- percent AR protein degradation at 0.01 µM [2]: 10 to 50%
- percent AR protein degradation at 0.1 µM [2]: 50 to 90%

SMILES: CN(c1ccc(C#N)c(Cl)c1)[C@H]1CC[C@H](NC(=O)c2ccc(N3CC(CN4Cc5cc6c(cc5C4)C(=O)N(C4CCC(=O)NC4=O)C6=O)C3)cc2)CC1 (stereo partly shown) [compound 23]
- percent AR protein degradation at 0.01 µM [2]: > 90%
- percent AR protein degradation at 0.1 µM [2]: > 90%

SMILES: N#Cc1ccc(OC2CCC3(CC2)CC(NC(=O)c2ccc(N4CCC(CN5Cc6cc7c(cc6C5)C(=O)N(C5CCC(=O)NC5=O)C7=O)CC4)cc2)C3)cc1Cl (stereo not shown) [compound 125]
- AR protein degradation VCap 10 nM [2]: D
- percent AR protein degradation at 0.1 µM [2]: 10 to 50%

SMILES: N#Cc1ccc(O[C@H]2CC[C@H](N3Cc4cc(C(=O)N5CCC(CN6Cc7cc8c(cc7C6)C(=O)N(C6CCC(=O)NC6=O)C8=O)CC5)ccc4C3=O)CC2)cc1Cl (stereo partly shown) [compound 174]
- AR protein degradation VCap 10 nM [2]: D
- percent AR protein degradation at 0.1 µM [2]: > 90%

SMILES: N#Cc1ccc(O[C@H]2CC[C@H](NC(=O)c3ccc(N4CCC(CN5Cc6cc7c(cc6C5)C(=O)N(C5CCC(=O)NC5=O)C7=O)CC4)cc3)CC2)cc1Cl (stereo partly shown) [compound 8, N-((1r,4r)-4-(3-chloro-4-cyanophenoxy)cyclohexyl)-4-(4-((6-(2,6-dioxopiperidin-3-yl)-5,7-dioxo-3,5,6,7-tetrahydropyrrolo[3,4-f]isoindol-2(1H)-yl)methyl)piperidin-1-yl)benzamide]
- percent AR protein degradation at 0.01 µM [2]: > 90%
- percent AR protein degradation at 0.1 µM [2]: > 90%

SMILES: N#Cc1ccc(O[C@H]2CC[C@H](NC(=O)c3ccc4c(c3)CCN(CC(=O)N3Cc5cc6c(cc5C3)C(=O)N(C3CCC(=O)NC3=O)C6=O)C4)CC2)cc1Cl (stereo partly shown) [compound 27, N-((1r,4r)-4-(3-chloro-4-cyanophenoxy)cyclohexyl)-2-(2-(6-(2,6-dioxopiperidin-3-yl)-5,7-dioxo-3,5,6,7-tetrahydropyrrolo[3,4-f]isoindol-2(1H)-yl)-2-oxoethyl)-1,2,3,4-tetrahydroisoquinoline-6-carboxamide]
- percent AR protein degradation at 0.01 µM [2]: 50 to 90%
- percent AR protein degradation at 0.1 µM [2]: > 90%

SMILES: C[C@H]1C[C@H](NC(=O)c2ccc(N3CCC(CN4Cc5cc6c(cc5C4)C(=O)N(C4CCC(=O)NC4=O)C6=O)CC3)cc2)CC[C@H]1Oc1ccc(C#N)c(Cl)c1 (stereo partly shown) [compound 14]
- percent AR protein degradation at 0.01 µM [2]: > 90%
- percent AR protein degradation at 0.1 µM [2]: > 90%
